Experimental data taken from US8802597B2, “Herbicidal pyrimidines” (E I du Pont de Nemours and Company, priority 2003, dated 2014).

Columns and labels:
Type in all cases: in vivo
[1] = test system: barnyardgrass (Echinochloa crus-galli); assay: Test B pre/postemergence
Method in brief: (§1)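 Scores reflect visual comparison with untreated controls, where 0 means no effect and 100 complete control. Plants stayed 13 to 15 days in the greenhouse after pre- or postemergence treatment with compounds carried in a non-phytotoxic solvent and surfactant.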

[2] = test system: wheat (Triticum aestivum); assay: Test B pre/postemergence
Method in brief: as §1

[3] = test system: crabgrass (Digitaria sanguinalis); assay: Test B pre/postemergence
Method in brief: as §1

[4] = test system: morningglory (Ipomoea coccinea); assay: Test B pre/postemergence
Method in brief: as §1

[5] = test system: Surinam grass (Brachiaria decumbens); assay: Test B pre/postemergence
Method in brief: as §1

[6] = test system: pigweed (Amaranthus retroflexus); assay: Test B pre/postemergence
Method in brief: as §1

[7] = test system: lambsquarters (Chenopodium album); assay: Test B pre/postemergence
Method in brief: as §1

[8] = test system: velvetleaf (Abutilon theophrasti); assay: Test B pre/postemergence
Method in brief: as §1

[9] = test system: cocklebur (Xanthium strumarium); assay: Test B pre/postemergence
Method in brief: as §1

[10] = test system: giant foxtail (Setaria faberii); assay: Test B pre/postemergence
Method in brief: as §1

corn (Zea mays) = assay: Test B pre/postemergence
Method in brief: as §1

[11] = test system: blackgrass (Alopecurus myosuroides); assay: Test B postemergence; settings: for Blackgrass plant response rating: 125 g ai/ha, scale 0 to 100 (0 no effect, 100 complete control); for Plant response rating, Blackgrass: 500 g ai/ha, scale 0 to 100
Method in brief: as §1

wild oat (Avena fatua) = assay: Test B postemergence; settings: for Oat, Wild plant response rating: 125 g ai/ha, scale 0 to 100 (0 no effect, 100 complete control); for Plant response rating, Oat, Wild: 500 g ai/ha, scale 0 to 100
Method in brief: as §1

[12] = test system: barnyardgrass (Echinochloa crus-galli); assay: Test B flooded paddy test; settings: Flood, 1000 g ai/ha; scale 0 (no effect) to 100 (complete control)
Method in brief: (§2)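 Visual injury scoring (0 = no effect, 100 = complete control) versus controls made 13 to 15 days after treatment in the greenhouse. Test species were grown in flooded paddy to the 2-leaf stage: rice, barnyardgrass, umbrella sedge, duck salad.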

[13] = test system: umbrella sedge (Cyperus difformis); assay: Test B flooded paddy test; settings: Flood, 1000 g ai/ha; scale 0 to 100
Method in brief: as §2

[14] = test system: duck salad (Heteranthera limosa); assay: Test B flooded paddy test; settings: Flood, 1000 g ai/ha; scale 0 to 100
Method in brief: as §2

rice (Oryza sativa) = assay: Test B flooded paddy test; settings: Flood, 1000 g ai/ha; scale 0 to 100
Method in brief: as §2

[15] = Postemergence, 125 g ai/ha, scale 0 to 100 (0 no effect, 100 complete control)
[16] = Postemergence, 500 g ai/ha, scale 0 to 100
[17] = Preemergence, 125 g ai/ha, scale 0 to 100 (0 no effect, 100 complete control)
[18] = Preemergence, 500 g ai/ha, scale 0 to 100 (0 no effect, 100 complete control)

Compound: CCOC(=O)C(Cl)(Cl)c1nc(C2CC2)nc(N)c1Br [Compound 34]
- Barnyardgrass plant response rating [1, 15]: 0
- Plant response rating, Barnyardgrass [1, 16]: 60
- Plant response rating, Barnyardgrass [1, 17]: 0
- Barnyardgrass plant response rating [1, 18]: 0
- Wheat plant response rating [2, 15]: 30
- Plant response rating, Wheat [2, 16]: 40
- Plant response rating, Wheat [2, 17]: 0
- Plant response rating, Wheat [2, 18]: 10
- Crabgrass plant response rating [3, 15]: 0
- Plant response rating, Crabgrass [3, 16]: 30
- Plant response rating, Crabgrass [3, 17]: 0
- Crabgrass plant response rating [3, 18]: 70
- Morningglory plant response rating [4, 15]: 60
- Plant response rating, Morningglory [4, 16]: 70
- Plant response rating, Morningglory [4, 17]: 20
- Morningglory plant response rating [4, 18]: 70
- Surinam Grass plant response rating [5, 15]: 10
- Plant response rating, Surinam Grass [5, 16]: 50
- Plant response rating, Surinam Grass [5, 17]: 10
- Surinam Grass plant response rating [5, 18]: 50
- Pigweed plant response rating [6, 15]: 50
- Plant response rating, Pigweed [6, 16]: 80
- Plant response rating, Pigweed [6, 17]: 40
- Pigweed plant response rating [6, 18]: 80
- Lambsquarters plant response rating [7, 15]: 70
- Plant response rating, Lambsquarters [7, 16]: 90
- Plant response rating, Lambsquarters [7, 17]: 50
- Lambsquarters plant response rating [7, 18]: 80
- Velvetleaf plant response rating [8, 15]: 30
- Plant response rating, Velvetleaf [8, 16]: 60
- Plant response rating, Velvetleaf [8, 17]: 30
- Velvetleaf plant response rating [8, 18]: 60
- Cocklebur plant response rating [9, 15]: 80
- Plant response rating, Cocklebur [9, 16]: 80
- Plant response rating, Cocklebur [9, 17]: 30
- Cocklebur plant response rating [9, 18]: 60
- Foxtail, Giant plant response rating [10, 15]: 20
- Plant response rating, Foxtail, Giant [10, 16]: 50
- Plant response rating, Foxtail, Giant [10, 17]: 0
- Foxtail, Giant plant response rating [10, 18]: 20
- Corn plant response rating (corn (Zea mays); [15]): 0
- Plant response rating, Corn (corn (Zea mays); [16]): 0
- Plant response rating, Corn (corn (Zea mays); [17]): 0
- Corn plant response rating (corn (Zea mays); [18]): 0
- Blackgrass plant response rating [11]: 60
- Plant response rating, Blackgrass [11]: 70
- Oat, Wild plant response rating (wild oat (Avena fatua)): 30
- Plant response rating, Oat, Wild (wild oat (Avena fatua)): 40
- Plant response rating, Barnyardgrass [12]: 0
- Plant response rating, Sedge, Umbrella [13]: 0
- Plant response rating, Ducksalad [14]: 0
- Plant response rating, Rice (rice (Oryza sativa)): 0

Compound: CC(C)COC(=O)c1nc(C2CC2)nc(N)c1Br [Compound 17]
- Barnyardgrass plant response rating [1, 15]: 20
- Plant response rating, Barnyardgrass [1, 16]: 90
- Plant response rating, Barnyardgrass [1, 17]: 20
- Barnyardgrass plant response rating [1, 18]: 80
- Wheat plant response rating [2, 15]: 0
- Plant response rating, Wheat [2, 16]: 60
- Plant response rating, Wheat [2, 17]: 40
- Wheat plant response rating [2, 18]: 60
- Crabgrass plant response rating [3, 15]: 20
- Plant response rating, Crabgrass [3, 16]: 50
- Plant response rating, Crabgrass [3, 17]: 70
- Crabgrass plant response rating [3, 18]: 100
- Morningglory plant response rating [4, 15]: 100
- Plant response rating, Morningglory [4, 16]: 100
- Plant response rating, Morningglory [4, 17]: 100
- Morningglory plant response rating [4, 18]: 100
- Surinam Grass plant response rating [5, 15]: 30
- Plant response rating, Surinam Grass [5, 16]: 80
- Plant response rating, Surinam Grass [5, 17]: 30
- Surinam Grass plant response rating [5, 18]: 90
- Pigweed plant response rating [6, 15]: 70
- Plant response rating, Pigweed [6, 16]: 90
- Plant response rating, Pigweed [6, 17]: 80
- Pigweed plant response rating [6, 18]: 100
- Lambsquarters plant response rating [7, 15]: 100
- Plant response rating, Lambsquarters [7, 16]: 100
- Plant response rating, Lambsquarters [7, 17]: 90
- Lambsquarters plant response rating [7, 18]: 100
- Velvetleaf plant response rating [8, 15]: 60
- Plant response rating, Velvetleaf [8, 16]: 100
- Plant response rating, Velvetleaf [8, 17]: 70
- Velvetleaf plant response rating [8, 18]: 90
- Cocklebur plant response rating [9, 15]: 100
- Plant response rating, Cocklebur [9, 16]: 100
- Plant response rating, Cocklebur [9, 17]: 80
- Cocklebur plant response rating [9, 18]: 90
- Foxtail, Giant plant response rating [10, 15]: 10
- Plant response rating, Foxtail, Giant [10, 16]: 70
- Plant response rating, Foxtail, Giant [10, 17]: 20
- Foxtail, Giant plant response rating [10, 18]: 70
- Corn plant response rating (corn (Zea mays); [15]): 0
- Plant response rating, Corn (corn (Zea mays); [16]): 80
- Plant response rating, Corn (corn (Zea mays); [17]): 0
- Corn plant response rating (corn (Zea mays); [18]): 60
- Blackgrass plant response rating [11]: 0
- Plant response rating, Blackgrass [11]: 70
- Oat, Wild plant response rating (wild oat (Avena fatua)): 0
- Plant response rating, Oat, Wild (wild oat (Avena fatua)): 50
- Plant response rating, Barnyardgrass [12]: 80
- Plant response rating, Sedge, Umbrella [13]: 50
- Plant response rating, Ducksalad [14]: 90
- Plant response rating, Rice (rice (Oryza sativa)): 50
